Experimental data from patent US8889378B2, “Cytochrome C synthesis inhibitors” (priority 2006, dated 2014).

Legend:
[1] = test system: system I cytochrome c biogenesis; test: Metalloprotoporphyrin IX addition, E. coli Δccm with pRGK333 (system I), pRGK332 and pHPEX2; type: cell-based; details: for level of heme on c4:6×His: system I, up to 100 μM
Protocol: (§1) Overnight cultures of an E. coli Δccm strain (or E. coli ΔccmΔhemA) harboring either pRGK333 (system I) or pRGK348 (system II-chuA), pRGK332 (cytochrome c4:6×His), and pHPEX2 (Varnado and Goodwin, 2004) were diluted into fresh LB broth (containing the appropriate antibiotics and 8 μM hemin for the E. coli ΔccmΔhemA strain) and incubated with aeration at 37° C. until the OD600 was approximately 0.5. […] Arabinose (0.2%) was added after one hour and incubation continued for an additional three hours. Cells were harvested and soluble protein was extracted using B-PER (Feissner et al., 2006). Cytochrome c4:6×His was purified from 300 μg of total protein and 20 μL was subjected to SDS-PAGE and transferred to nitrocellulose. Prior to heme stain and c4 immunoblot, the nitrocellulose blots were screened for fluorescence on an LAS-1000plus Luminescent Image Analyzer CCD camera system (Fujifilm; Tokyo, Japan).
(§2) Heme stains were performed as described (Feissner et al., 2003) using SuperSignal Femto chemiluminescent substrate (Pierce). Heme stain quantitation used LOLITA II (Low Light Test Array; raytestUSA; Wilmington, N.C.) for standardization of light intensity detection on an LAS1000plus Luminescent Image Analyzer CCD camera system. For Western blotting, extracts were first separated by 12% or 15% SDS-PAGE and electroblotted onto Hybond-C nitrocellulose membranes (Amersham). Protein A peroxidase (Sigma-Aldrich) was used as the secondary label. Detection used the SuperSignal West Femto ECL detection system (Pierce). Chemiluminescence from heme stains and Western blots were detected using an LAS-1000plus Luminescent Image Analyzer CCD camera system (Fujifilm). Protein concentrations were determined using the BCA assay (Pierce) using BSA as a standard. The reduced (10 mM sodium dithionite) and oxidized (10 mM ammonia persulphate) absorption spectra were obtained as previously described (Goldman et al., 1996) using Ni^2+ affinity-purified holocytochrome c4:His. Protein concentrations were determined with the BCA assay kit (Pierce) using BSA as a standard.
ZnPPIX (and SnPPIX), when present with 8 μM heme, may compete with heme for ChuA-dependent transport into the cell. Using an E. coli Δccm strain (RK103) that has endogenous heme production, it was tested whether ZnPPIX (and SnPPIX) caused a reduction in holocytochrome c4 levels detectable by heme stain. When E. coli Δccm with pRGK333 (system I), pRGK332, and pHPEX2 were treated with ZnPPIX, a decrease in holocytochrome c4:6×His was detected as the concentration of ZnPPIX was increased (FIG. 16A left panel, lanes 1-5).
The three other metal protoporphyrins, SnPPIX, MnPPIX, and CoPPIX, were also tested in the E. coli Δccm background with system I or II. […]

[2] = test system: system II cytochrome c biogenesis (H. pylori CcsBA); test: Metalloprotoporphyrin IX addition, E. coli Δccm with pRGK348 (system II-chuA) and pRGK332; type: cell-based; details: for level of heme on c4:6×His: system II, up to 100 μM
Protocol: as §1
as §2, with “Protein A peroxidase (Sigma-Aldrich) was used as the secondary label. Detection used the SuperSignal West Femto ECL detection system (Pierce).” left out, “The reduced (10 mM sodium dithionite) and oxidized (10 mM ammonia persulphate) absorption spectra were obtained as previously described (Goldman et al., 1996) using Ni^2+ affinity-purified holocytochrome c4:His.” left out
ZnPPIX (and SnPPIX), when present with 8 μM heme, may compete with heme for ChuA-dependent transport into the cell. […] When E. coli Δccm with pRGK333 (system I), pRGK332, and pHPEX2 were treated with ZnPPIX, a decrease in holocytochrome c4:6×His was detected as the concentration of ZnPPIX was increased (FIG. 16A left panel, lanes 1-5). […]

[3] = test system: system I cytochrome c biogenesis; test: Metalloprotoporphyrin IX addition, E. coli ΔccmΔhemA with pRGK333 (system I), pRGK332, pHPEX2 and 8 μM heme; type: cell-based; details: for effect on the level of detectable heme on c4:6×His (holocytochrome c4): metalloporphyrin 8, 12.5 or 25 μM with 8 μM heme
Protocol: Overnight cultures of an E. coli Δccm strain (or E. coli ΔccmΔhemA) harboring either pRGK333 (system I) or pRGK348 (system II-chuA), pRGK332 (cytochrome c4:6×His), and pHPEX2 (Varnado and Goodwin, 2004) were diluted into fresh LB broth (containing the appropriate antibiotics and 8 μM hemin for the E. coli ΔccmΔhemA strain) and incubated with aeration at 37° C. until the OD600 was approximately 0.5. The mid-log phase cultures were divided into 5 mL aliquots to which IPTG (1 mM) and a metalloprotoporphyrin IX (Zn (II), Sn (IV), Co (III), or Mn (III); 0 μM to 25 μM) were added. Arabinose (0.2%) was added after one hour and incubation continued for an additional three hours. Cells were harvested and soluble protein was extracted using B-PER (Feissner et al., 2006). Cytochrome c4:6×His was purified from 300 μg of total protein and 20 μL was subjected to SDS-PAGE and transferred to nitrocellulose. Prior to heme stain and c4 immunoblot, the nitrocellulose blots were screened for fluorescence on an LAS-1000plus Luminescent Image Analyzer CCD camera system (Fujifilm; Tokyo, Japan).
as §2
The chemical properties of iron may not be uniquely critical for its attachment to apocytochrome c during cytochromes c biogenesis. To test whether any of the cytochromes c biogenesis systems can incorporate other metal porphyrins, four metalloporphyrins were chosen to screen for incorporation into the into the CXXCH motif of a c-type cytochrome: ZnPPIX, SnPPIX, MnPPIX, and CoPPIX. These four metalloporphyrins were tested to determine whether heme can be replaced by other metalloporphyrins in the c-type cytochrome (c4:6×His) reporter. Cultures of E. coli ΔccmΔhemA containing pRGK333 (system I), pRGK332 (c4:6×His), and pHPEX2 were grown overnight in 300 μM ALA and subcultured into fresh LB medium containing 8 μM heme and grown to an OD600 of 0.5. IPTG and metalloporphyrin (8 μM, 12.5 μM, or 25 μM) were then added and growth continued for one hour. Arabinose was added to 0.2% to induce the synthesis of the c4:6×His and growth continued for three more hours before cells were harvested. […] As expected, heme was detected on c4:6×His when either 8 μM or 25 μM heme alone was added (FIG. 15 lanes 1 and 2, respectively).

E. coli Δccm = test: Growth of E. coli Δccm with pRGK333, pRGK332 and pHPEX2 in the presence of ZnPPIX; type: cell-based; details: 12.5 μM or 25 μM; compared to the same strain without ZnPPIX
Protocol: FIG. 21. Growth of E. coli Dccm containing pRGK333, pRGK332, and HPEX2 in the presence of ZnPPIX. Overnight cultures of E. coli Dccm containing pRGK333 (system I), pRGK332 (cytochrome c4:6×His), and pHPEX2 were diluted into fresh LB broth containing the indicated ZnPPIX ([…]) concentrations for growth measurements.
To rule out that ZnPPIX is not affecting some basic cellular processes, growth studies were performed with E. coli Δccm harboring pRGK333 (system I), pRGK332 (c4:6×His), and pHPEX2.

[4] = test system: system I cytochrome c biogenesis with arabinose-inducible CcmE; test: NMPP inhibition, RK103 with pRGK345 (system I, ccmE deletion) and pRGK349 (arabinose-inducible c4:His and CcmE); type: cell-based, E. coli; details: 100 μM NMPP; compared with pRGK333 and constitutively produced CcmE
Protocol: (§3) Five milliliter cultures of E. coli Δccm harboring either the pRGK333 or pRGK334 plasmid and pRGK332, or pRGK345 and pRGK349, were inoculated with 300 μl of overnight culture grown for 3 h to mid-exponential phase (A600=0.6). At this point, IPTG and NMPP (Frontier Scientific) were added to each culture; IPTG was added (1 mM) to induce the synthesis of system I (pRGK333), system II (pRGK334), or ΔccmE (pRGK345) while NMPP (10 mM stock in 50% DMSO) was added to a final concentration of 0-100 μM. After addition of IPTG and NMPP, cultures were grown an additional hour before induction of cytochrome c4:His (and ccmE from pRGK349) with 0.2% arabinose. Cells were grown for an additional 3 h and then harvested by centrifugation. […]
(§4) Heme stains were performed as described (Feissner et al., 2003) using SuperSignal Femto chemiluminescent substrate (Pierce). Heme stain quantitation used LOLITA II (Low Light Test Array; raytestUSA; Wilmington, N.C.) for standardization of light intensity detection on an LAS1000plus Luminescent Image Analyzer CCD camera system. […] Chemiluminescence from heme stains and Western blots were detected using an LAS-1000plus Luminescent Image Analyzer CCD camera system (Fujifilm). Protein concentrations were determined using the BCA assay (Pierce) using BSA as a standard. […] Protein concentrations were determined with the BCA assay kit (Pierce) using BSA as a standard. […]

[5] = test system: system I cytochrome c biogenesis; test: NMPP-ZnPPIX combined inhibition, E. coli Δccm with pRGK333 (system I), pRGK332 and pHPEX2; type: cell-based
Protocol: 100 mL cultures of E. coli Δccm containing pRGK333 (system I), pRGK332 (c4:6×His), and pHPEX2 (Varnado and Goodwin, 2004) were inoculated with 1% (v/v) from an overnight culture and grown with aeration at 37° C. to an OD600 of approximately 0.5. The mid-log phase cultures were divided into 5 mL aliquots to which IPTG (1 mM, to induce the synthesis of the system I proteins and the chuA gene) and NMPP (0 μM to 100 μM) were added. After one hour 0.2% arabinose was added (to induce the synthesis of the B. pertussis c4:6×His) and cultures were incubated an additional three hours. […]
as §4

[6] = test system: system II cytochrome c biogenesis (H. pylori CcsBA); test: NMPP inhibition of holocytochrome c4:His synthesis, RK103 with pRGK334 (system II) and pRGK332; type: cell-based, E. coli; details: all trials; heme stain
Protocol: as §3, §4

C=Cc1c(C)c2cc3[nH]c(cc4nc(cc5nc(cc1[nH]2)C(C)=C5CCC(=O)[O-])C(CCC(=O)[O-])=C4C)c(C)c3C=C.[Co+2] [CoPPIX, cobalt (III) protoporphyrin IX]
level of heme on c4:6×His [1]: no decrease | level of heme on c4:6×His [2]: no decrease | effect on the level of detectable heme on c4:6×His (holocytochrome c4) [3]: neither CoPPIX nor MnPPIX had any affect

C=CC1=C(C)c2cc3[n-]c(cc4[n-]c(cc5nc(cc1n2)C(C)=C5C=C)c(C)c4CCC(=O)[O-])c(CCC(=O)[O-])c3C.[H+].[H+].[Mn+2] [MnPPIX, manganese (III) protoporphyrin IX]
level of heme on c4:6×His [1]: no decrease | level of heme on c4:6×His [2]: no decrease | effect on the level of detectable heme on c4:6×His (holocytochrome c4) [3]: neither CoPPIX nor MnPPIX had any affect

C=Cc1c2[n-]c(c1C)/C=c1\[n-]/c(c(C)c1C=C)=C\c1[n-]c(c(CCC(=O)O)c1C)C=c1[n-]/c(c(C)c1CCC(=O)O)=C\2.[Sn+4] [SnPPIX, tin (IV) protoporphyrin IX]
IC50 ([1]; holocytochrome c4:6×His, heme stain, read-out: concentration required for 50% inhibition of system I): ~65 µM | IC50 ([2]; holocytochrome c4:6×His, heme stain, read-out: concentration required for 50% inhibition of system II): ~18 µM | effect on the level of detectable heme on c4:6×His (holocytochrome c4) [3]: reduced the level of detectable heme

C=CC1=C(C)c2cc3[n-]c(cc4[n-]c(cc5nc(cc1n2)C(C)=C5C=C)c(C)c4CCC(=O)O)c(CCC(=O)O)c3C.[Zn+2] [ZnPPIX, zinc (II) protoporphyrin IX]
holocytochrome c4:6×His produced, % of wild type levels ([1]; 8 μM ZnPPIX): approximately 20% | rate or yield of growth (E. coli Δccm): no decrease in the rate or yield of growth | level of heme on c4:6×His ([3]; 25 μM ZnPPIX with 8 μM heme, heme stain): nearly undetectable | effect on the level of detectable heme on c4:6×His (holocytochrome c4) [3]: decreasing amounts of holocytochrome c4

N-methylprotoporphyrin [NMPP]
amount of holocytochrome c4:His [4]: dramatic reduction | holocytochrome c4:6×His levels ([5]; 60 μM NMPP alone): approximately 54% | holocytochrome c4:6×His levels ([5]; 100 μM NMPP alone): approximately 30% | NMPP concentration at which holocytochrome c4:His production was completely abolished [6]: less than 20 μM
